Results published in US20150174158A1, “[…] NITRIC OXIDE FOR TREATING RESPIRATORY DISEASES” (Advanced Inhalation Therapies (AIT) Ltd., priority 2012, published 2015).
Where two headings read alike, the source gives them in different places.

Key:
[1] = Phase I safety study: serum nitrite/nitrate by Griess reagent; format: in vivo, human; details: 160 ppm gNO 30 min, 5 times a day, 5 days
Procedure: (§1) After obtaining informed consent, treatment was initiated within 5 days of enrollment. Subjects were housed in a hospital ward and received 160 ppm gNO for 30 minutes every four hours (Q4h), five times a day, for five consecutive days by inhalation. Subjects returned for follow-up evaluations 3, 7 and 21 days after the final gNO administration. Subject safety was determined by monitoring vital signs, methemoglobin levels, lung function, blood chemistry, hematology, prothrombin time, inflammatory cytokine/chemokines levels and endothelial activation. These parameters were compared to baseline and at various time-points during and after gNO administration.
These parameters were measured continuously during every gNO administration course and for 3.5 hours after the first treatment of the day. Daily serum samples were collected and frozen at −80° C. and the serum […] level was measured using the Griess reagent.

[2] = Phase I safety study: hematology, blood chemistry, coagulation; format: in vivo, human; details: baseline 0.15 (SD=0.12); SD=0.19; p=0.104
Procedure: as §1
Hematological assessment included a complete blood count and differentials (hemoglobin, hematocrit, red blood cell count, white blood cell count, white blood cell differential, and platelet count) were obtained in order to monitor blood chemistry, hematology and inflammation measurements. […] The effect of gNO on coagulation was determined by the prothrombin time (PT) and its derived measures of prothrombin ratio (PR) and international normalized ratio (INR). […] Plasma cytokine levels were assessed using the human inflammation cytokine bead array kit (BD Bioscience, Canada). Plasma levels of angiopoietin Ang-1 and Ang-2 were determined by ELISA (R&D Systems, USA).

[3] = tested on: TNF, IL-6, IL-8, IL-10, IL-1b and IL-12p70; experiment: Phase I safety study: plasma cytokines by cytometric bead array; format: in vivo, human; details: vs baseline, all sampling time points
Text: Hematological assessment included a complete blood count and differentials (hemoglobin, hematocrit, red blood cell count, white blood cell count, white blood cell differential, and platelet count) were obtained in order to monitor blood chemistry, hematology and inflammation measurements. The blood chemistry profile included serum creatinine, and liver function tests such as aspartate aminotransferase (AST) serum glutamic oxaloacetic transaminase (SGOT), alkaline phosphatase, and gamma-glutamyl transferase (GGT). The effect of gNO on coagulation was determined by the prothrombin time (PT) and its derived measures of prothrombin ratio (PR) and international normalized ratio (INR). Heparinized plasma was collected at baseline and on days 1, 2, 4, and 5 of gNO administration, and on follow-up days 3, 7 and 21 and frozen at −80° C. Plasma cytokine levels were assessed using the human inflammation cytokine bead array kit (BD Bioscience, Canada). Plasma levels of angiopoietin Ang-1 and Ang-2 were determined by ELISA (R&D Systems, USA).
To assess whether gNO inhalation may cause inflammation or endothelial activation cytokines and the vascular endothelium activation factors Ang-1 and Ang-2 were quantified in peripheral plasma at baseline at various time points thereafter. […]

MRSA = details: 200 ppm gNO; saline; cited from earlier work
Serracia sp. = details: 200 ppm gNO; saline; cited from earlier work
Group B Streptococci = details: 200 ppm gNO; saline; cited from earlier work
[4] = cited from earlier work
[5] = cited from earlier work; for mortality: 6 h/day, groups of 10 rats
[6] = gNO concentrations below 200 ppm, 6 hours/day for 28 days; cited from earlier work
[7] = tested on: Pseudomonas aeruginosa pneumonia; details: 160 ppm gNO, intermittent 30 minute exposures; cited from earlier work
[8] = tested on: chronic, non-healing wound; details: topical 200 ppm gNO, within the first three days; cited from earlier work

[N]=O [gNO, nitric oxide]
serum nitrite/nitrate levels vs baseline [1]: no significant differences
eosinophil cell numbers, end of study [2]: 0.19 giga/L
plasma cytokine levels [3]: unaffected
LD100 (MRSA): 5 h
Latent Period (MRSA): 3 h
−2.5 Log10 (MRSA): 4.2 hours
LD100 (Serracia sp.): 6 h
Latent Period (Serracia sp.): 4 h
−2.5 Log10 (Serracia sp.): 4.9 hours
LD100 (Group B Streptococci): 2 h
Latent Period (Group B Streptococci): 1 h
−2.5 Log10 (Group B Streptococci): 1.5 hours
radius of action from site of origin ([4]; in vivo): approximately 200 microns
nitrate excreted in the urine, share of nitric oxide dose inhaled ([4]; predominant metabolite): more than 70%
animals that died during the first 1-2 days ([5]; 300 ppm gNO, group of 10 rats): Six
mortality ([5]; 400 ppm gNO): all of the animals died on the first day
mortality ([5]; 500 ppm gNO): all of the animals died on the first day
MetHb level ([5]; 500 ppm gNO): 67 percents
deaths [6]: No deaths occurred
pulmonary bioburden and leukocyte infiltration [7]: effective to reduce the pulmonary bioburden and leukocyte infiltration
biofilm presence [8]: no longer visibly present
